The results in this text go back to PubChem BioAssay (NCI).

Assay in all cases: inhibition of tumour cell growth, NCI panel, 48 h
The test system of assay [1] is HCT-116 colon.
The test system of assay [2] is OVCAR-3 ovarian.
Assay [3] relates to MOLT-4 leukemia.
The subject of assay [4] is MALME-3M melanoma.
Assay [5] deals with T-47D breast.
Assay [6] concerns SW-620 colon.
Assay [7] deals with RXF 393 renal.
The subject of assay [8] is SK-MEL-2 melanoma.
For assay [9], the system named is MDA-MB-435.
Assay [10] concerns HOP-62 NSCLC.

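Protocol summary: plate cells (96-well), add compound at 5 concentrations, incubate 48 h, interpolate endpoints linearly. TGI: total growth inhibition.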 Some results are limits rather than exact numbers.

As to `NS(=O)(=O)c1ccc(N=Nc2ccc(O)c(C(=O)O)c2)cc1`, the TGI in assay [1], in [2], in assay [3], in assay [4], in assay [5] and in assay [6] was greater than 100 µM in each case. The TGI in assay [7], in assay [8], in [9] and in [10] was greater than 100 µM in each case.

Take `Cc1ccc(/C=C2\N=C(N3CCCC(CO)C3)NC2=O)cc1` (stereo not drawn): the TGI in assay [1], in assay [2], in assay [3], in assay [4], in [5] and in assay [6] was greater than 100 µM in each case. Also, the TGI in assay [7], in [8], in assay [9] and in assay [10] was greater than 100 µM each time.

`CN(C)CCCNC(=O)c1cn2c(ccc3sc4ccccc4c(=O)c32)n1`: the TGI came to 2.98 µM in assay [1]; 24.1 µM in [2]; 24.4 µM in [4]; 45.3 µM in assay [5]; 3.15 µM in [6]; 21.8 µM in assay [7]. For the same compound, the TGI is 38.4 µM in [8], 30.4 µM in assay [9] and 28 µM in [10].

`Cc1cc2ccc(N)nc2[nH]c1=O`: the TGI in assay [1], in assay [4], in [5], in [6], in assay [7] and in assay [8] was greater than 100 µM each time. The TGI in [9] was greater than 100 µM.

With `O=[N+]([O-])/C(C(Cl)=C(Cl)Cl)=C(/Nc1ccccc1)Sc1ccccc1`, the TGI was determined as 38.4 µM in [1]; 30.1 µM in [2]; 46.7 µM in [3]; 31.8 µM in assay [4]; 59.8 µM in assay [5]; 51.1 µM in [6]. Besides, the TGI was 40.3 µM in assay [7], 33.9 µM in assay [9] and 62 µM in assay [10].

With `CC(NC(=O)C(Cc1ccc(OC(=O)c2ccccc2)cc1)NC(=O)OC(C)(C)C)C(=O)NCC(=O)NC(Cc1ccccc1)C(=O)NN` (stereo not drawn), the TGI in [1] is greater than 100 µM; in assay [2], greater than 100 µM; in [3], 69.4 µM; in [4], greater than 100 µM; in assay [5] it was greater than 100 µM; in assay [6], greater than 100 µM. Further, the TGI in assay [7], in assay [9] and in assay [10] was greater than 100 µM in each case.

Regarding `CCOC(=O)/C=C/[C@@H](CC)O[Si](C(C)C)(C(C)C)C(C)C`, the TGI in [1], in [2], in assay [3], in assay [4], in [5] and in assay [6] was greater than 100 µM in each case. The TGI in assay [8], in [9] and in [10] was greater than 100 µM each time.

For the compound `CCOC(=O)CCC(NC(=O)c1ccc(Nc2nc3ccccc3nc2C(=O)OCC)cc1)C(=O)OCC` (stereo not drawn), the TGI in [1] is 8.6 µM; in assay [2], 4.73 µM; in assay [3], greater than 100 µM; in assay [4] it was 26.3 µM; in [5] it was 7.06 µM; in assay [6], 49.9 µM. Further, the TGI was 24.4 µM in assay [8], greater than 100 µM in assay [9] and 12.4 µM in assay [10].

Consider `O=[N+]([O-])C(C=C(n1nnc2ccccc21)n1nnc2ccccc21)=C(n1nnc2ccccc21)n1nnc2ccccc21`, for which the TGI in assay [1] is greater than 100 µM; in assay [2] it was greater than 100 µM; in [3], 93.4 µM; in [4] it was greater than 100 µM; in assay [5], greater than 100 µM; in assay [6], greater than 100 µM. The TGI in assay [7], in [9] and in assay [10] was greater than 100 µM each time.

As for `CC1C2(C)OCC(C#N)(C(=N)O2)C1(C#N)C#N` (stereo not drawn), the TGI in [1] is 42.1 µM; in assay [2], 28.4 µM; in assay [3], greater than 100 µM; in assay [4], 51.8 µM; in [5] it was 30.2 µM; in assay [6] it was greater than 100 µM. In addition, the TGI in assay [7] was 65.7 µM; in [8], 33.5 µM; in assay [9], greater than 100 µM.

`CC(C)c1ccc(/C=C2\CSCC3=C2N=C2SCC(=O)N2C3c2ccc(C(C)C)cc2)cc1` (stereo not drawn): the TGI in [1], in assay [2], in [3], in assay [4], in assay [5] and in [6] was greater than 100 µM each time. Moreover, the TGI in assay [8], in assay [9] and in assay [10] was greater than 100 µM in each case.

As for `CCOC(=O)C(C(=O)COC(C)(C)C)[C@@H]1C=C[C@H](OC(C)=O)C1` (stereo partly drawn), the TGI in [1], in [2], in assay [3], in assay [4], in assay [5] and in assay [6] was greater than 100 µM each time. For the same compound, the TGI in assay [8], in [9] and in [10] was greater than 100 µM each time.

On to `FC(F)(F)c1ccc2nc(Sc3ccc4ccccc4c3)cnc2c1`, for which the TGI was greater than 100 µM in [1]; greater than 100 µM in assay [3]; greater than 100 µM in assay [4]; greater than 100 µM in assay [5]; greater than 100 µM in assay [6]; 92.6 µM in assay [7]. In addition, the figures for the TGI in assay [8], in [9] and in assay [10] were 66.3 µM, greater than 100 µM and greater than 100 µM, respectively.

As for `O=c1[nH]c2ccc([N+](=O)[O-])cc2nc1/C=C(\O)c1ccccc1`, the TGI in assay [1] is greater than 100 µM; in assay [2] it was 99.2 µM; in assay [3] it was greater than 100 µM; in [4], greater than 100 µM; in assay [5], greater than 100 µM; in [7], 49.8 µM. Also, the results for the TGI in assay [8], in [9] and in assay [10] were greater than 100 µM, greater than 100 µM and 22.1 µM, respectively.

For `CN(C)/C=C/C=C(/C=N/S(=O)(=O)C(F)(F)F)C1C=CN(S(=O)(=O)C(F)(F)F)C=C1`, the TGI in assay [1] is 87.2 µM; in assay [2], 98 µM; in assay [3] it was 71 µM; in assay [4], 82.7 µM; in [5], 75 µM; in [6], greater than 100 µM. Also, the TGI in assay [8] was 54.1 µM; in [9], 73.5 µM; in assay [10], greater than 100 µM.

Take `CC(=O)NC1C(OCc2ccccc2)OC(CO)C(O)C1OCC(=O)N[C@@H](C)C(=O)N[C@H](CCC(=O)NCCCNc1ccc([N+](=O)[O-])c2[nH]c3ccccc3c(=O)c12)C(N)=O` (stereo partly drawn): the TGI in [1], in assay [2], in assay [4], in assay [5], in assay [6] and in [7] was greater than 100 µM in each case. The TGI in assay [8], in [9] and in assay [10] was greater than 100 µM throughout.

As to `COc1ccc2c(c1)CCC/C2=N\NS(=O)(=O)c1c(C)cc(C)cc1C`, the TGI in assay [1] is 35.6 µM; in [2], greater than 100 µM; in [3], 66.1 µM; in assay [4], 48.8 µM; in [5], 53.9 µM; in [6], 90.8 µM. The TGI in [8], in assay [9] and in assay [10] was greater than 100 µM in each case.

Consider `CCn1c2ccccc2c2cc(Nc3cc(C)[nH]c(=O)n3)ccc21`, for which the TGI in [1], in assay [2], in assay [4], in assay [5], in [6] and in assay [7] was greater than 100 µM throughout. Besides, the TGI in assay [8], in [9] and in assay [10] was greater than 100 µM throughout.

As for `Cc1c(O)c(=O)ccn1CCc1ccc(O)cc1`, the TGI in assay [1] was greater than 100 µM; in [2], 63.4 µM; in assay [3] it was greater than 100 µM; in assay [4], 65.8 µM; in assay [5] it was greater than 100 µM; in assay [6] it was greater than 100 µM. In addition, the TGI in [9] and in [10] was greater than 100 µM in each case.

As to `CC[C@@]1(O)C(=O)OCc2c1cc1n(c2=O)Cc2c-1nc1ccccc1c2/C=N\NC(=O)C(N)Cc1c[nH]c2ccccc12` (stereo partly drawn), the TGI in [1] is 15.5 µM; in [2], greater than 54.9 µM; in [3] it was 1.18 µM; in [4] it was greater than 48.9 µM; in assay [5], greater than 100 µM; in assay [6], greater than 100 µM. The TGI in assay [7] is 1.21 µM; in assay [8] it was 36.3 µM; in assay [9] it was greater than 87.9 µM.

Regarding `O=C(O)c1ccc(N/C(=C(/C(Cl)=C(Cl)Cl)[N+](=O)[O-])n2nnc3ccccc32)cc1`, the TGI in assay [1], in assay [2], in assay [3], in [4], in assay [5] and in assay [6] was greater than 100 µM in each case. The TGI in assay [8], in assay [9] and in assay [10] was greater than 100 µM throughout.
